From patent US20080194646A1, “Methods For Avoiding Edema in the Treatment of Metabolic, Inflammatory, and Cardiovascular Disorders” (priority 2005, published 2008)

Key:
[1] = system: C57BL/6j ob/ob Mice; assay: glucose lowering activity of halofenate analogs in ob/ob mice (Example 14); assay type: in vivo; details: for plasma glucose concentrations vs vehicle: Student unpaired t-test; for Glucose 6 hours / Glucose 30 hours / Glucose 54 hours: plasma glucose; for Predose Glucose: baseline before dosing
Procedure: Male, 8-9 weeks old, C57BL/6J ob/ob mice were purchased from The Jackson Laboratory (Bar Harbor, Me., USA). Animals were housed (4-5 mice/cage) under standard laboratory conditions at 22±3° C. temperature and 50±20% relative humidity, and were maintained on a diet of Purina rodent chow and water ad libitum. Prior to treatment, blood was collected from the tail vein of each animal. Mice that had non-fasting plasma glucose levels between 250 and 500 mg/dl were used. Each treatment group consisted of 8-10 mice that were distributed so that the mean glucose levels were equivalent in each group at the start of the study. Mice were dosed orally by gavage once a day for 1-3 days with either vehicle, (−) halofenic acid, (+) analog 14, 29, 33, 34, 35, 36, 37, or 38 at 125 mg/kg or (−) analog 29, 36, 37 or 38 at 150 mg/kg. Compounds were delivered in a liquid formulation containing 5% (v/v) dimethyl sulfoxide (DMSO), 1% (v/v) tween 80 and 0.9% (w/v) methylcellulose. The gavage volume was 10 ml/kg. Blood samples were taken at 6 hours after the each dose and analyzed for plasma glucose. Food intake and body weight were measured daily. Plasma glucose concentrations were determined colorimetrically using glucose oxidase method (Sigma Chemical Co, St. Louis, Mo., USA). Significant difference between groups (comparing drug-treated to vehicle-treated) was evaluated using the Student unpaired t-test.

[2] = system: C57BL/6j ob/ob Mice; assay: anti-diabetic activity in C57BL/6j ob/ob mice (Example 20); assay type: in vivo; details: oral gavage once a day for 1-4 days; for minimal effective dose: Mus musculus, read-out: Potency; for minimal effective dose / Potency: glucose lowering, plasma glucose 6 hours after each dose
Procedure: The anti-diabetic activities of the compounds were evaluated in the C57BL/6j ob/ob Mice model. Male, 7-9 weeks old, C57BL/6J ob/ob mice were purchased from The Jackson Laboratory (Bar Harbor, Me., USA). Animals were housed (4-5 mice/cage) under standard laboratory conditions at 22±3° C. temperature and 50±20% relative humidity, and were maintained on a diet of Purina rodent chow and water ad libitum. Prior to treatment, blood was collected from the tail vein of each animal. Mice that had non-fasting plasma glucose levels between 250 and 500 mg/dl were used. Each treatment group consisted of 8-10 mice that were distributed so that the mean glucose levels were equivalent in each group at the start of the study. Mice were dosed orally by gavage once a day for 1-4 days with vehicle and one or more dose of test compound at a dose ranging from 5 to 125 mg/kg. Compounds were delivered in a liquid formulation containing 5% (v/v) dimethyl sulfoxide (DMSO), 1% (v/v) Tween 80® and 0.9% (w/v) methylcellulose. The gavage volume was 10 ml/kg. […] Food intake and body weight were measured daily. Plasma glucose concentrations were determined colorimetrically using a commercial glucose oxidase method (Sigma Chemical Co, St. Louis, Mo., USA). Significant difference between groups (comparing drug-treated to vehicle-treated) was evaluated using the Student unpaired t-test. Table 1 provides the relative potency of some selected compounds of the invention.

[3] = 125 mg/kg oral gavage once a day for 1-3 days
[4] = 125 mg/kg oral gavage once a day
[5] = group later dosed 125 mg/kg orally
[6] = 150 mg/kg oral gavage, single dose
[7] = group later dosed 150 mg/kg orally

SMILES: CC(=O)NCCOC(=O)C(Oc1cccc(C(F)(F)F)c1)c1ccc(F)cc1 (racemic) [(±)Analog 14]
- plasma glucose concentrations vs vehicle [1, 3]: significantly lowered plasma glucose concentrations at 6, 30 and 54 hours
- Glucose 6 hours [1, 4]: 328.9 ± 34.1 mg/dL
- Glucose 30 hours [1, 4]: 267.0 ± 21.3 mg/dL
- Glucose 54 hours [1, 4]: 293.0 ± 29.4 mg/dL
- Predose Glucose [1, 5]: 361.0 ± 17.1 mg/dL

SMILES: CC(=O)NCCOC(=O)C(Oc1cccc(C(F)(F)F)c1)c1ccc(Br)cc1 (racemic) [(±)Analog 29]
- plasma glucose concentrations vs vehicle [1, 3]: significantly lowered plasma glucose concentrations at 6, 30 and 54 hours
- Glucose 6 hours [1, 4]: 299.7 ± 24.5 mg/dL
- Glucose 30 hours [1, 4]: 237.4 ± 14.9 mg/dL
- Glucose 54 hours [1, 4]: 293.3 ± 9.7 mg/dL
- Predose Glucose [1, 5]: 387.1 ± 16.0 mg/dL

SMILES: CCCCOC(=O)C(Oc1cccc(C(F)(F)F)c1)c1ccc(Cl)cc1 (racemic) [(±)Analog 33]
- plasma glucose concentrations vs vehicle [1, 3]: significantly lowered plasma glucose concentrations at 6 and 54 hours
- Glucose 6 hours [1, 4]: 227.5 ± 13.2 mg/dL
- Glucose 30 hours [1, 4]: 298.0 ± 15.3 mg/dL
- Glucose 54 hours [1, 4]: 286.6 ± 9.9 mg/dL
- Predose Glucose [1, 5]: 292.0 ± 19.1 mg/dL

SMILES: CN(C)CCOC(=O)C(Oc1cccc(C(F)(F)F)c1)c1ccc(Cl)cc1 (racemic) [(±)Analog 35]
- plasma glucose concentrations vs vehicle [1, 3]: significantly lowered plasma glucose concentrations at 30 and 54 hours
- Glucose 6 hours [1, 4]: 319.6 ± 26.7 mg/dL
- Glucose 30 hours [1, 4]: 276.8 ± 17.6 mg/dL
- Glucose 54 hours [1, 4]: 286.2 ± 31.5 mg/dL
- Predose Glucose [1, 5]: 387.0 ± 18.0 mg/dL

SMILES: O=C(NCCOC(=O)C(Oc1cccc(C(F)(F)F)c1)c1ccc(Cl)cc1)c1ccccc1 (racemic) [(±)Analog 36]
- plasma glucose concentrations vs vehicle [1, 3]: significantly lowered plasma glucose concentrations at 30 and 54 hours
- Glucose 6 hours [1, 4]: 300.5 ± 27.3 mg/dL
- Glucose 30 hours [1, 4]: 249.7 ± 8.6 mg/dL
- Glucose 54 hours [1, 4]: 272.2 ± 18.4 mg/dL
- Predose Glucose [1, 5]: 329.7 ± 17.6 mg/dL

SMILES: NC(=O)COC(=O)C(Oc1cccc(C(F)(F)F)c1)c1ccc(Cl)cc1 (racemic) [(±)Analog 37]
- plasma glucose concentrations vs vehicle [1, 3]: significantly lowered plasma glucose concentrations at 54 hours
- Glucose 6 hours [1, 4]: 345.4 ± 19.7 mg/dL
- Glucose 30 hours [1, 4]: 312.5 ± 21.7 mg/dL
- Glucose 54 hours [1, 4]: 285.1 ± 14.7 mg/dL
- Predose Glucose [1, 5]: 387.4 ± 18.8 mg/dL

SMILES: CN(C)C(=O)COC(=O)C(Oc1cccc(C(F)(F)F)c1)c1ccc(Cl)cc1 (racemic) [(±)Analog 38]
- plasma glucose concentrations vs vehicle [1, 3]: significantly lowered plasma glucose concentrations at 6, 30 and 54 hours
- Glucose 6 hours [1, 4]: 303.2 ± 18.2 mg/dL
- Glucose 30 hours [1, 4]: 245.6 ± 15.6 mg/dL
- Glucose 54 hours [1, 4]: 243.1 ± 10.6 mg/dL
- Predose Glucose [1, 5]: 329.4 ± 18.9 mg/dL

SMILES: O=C(O)C(Oc1ccc(C(F)(F)F)cc1)c1cccc(C(F)(F)F)c1 (racemic) [Compound 39, (4-trifluoromethyl-phenoxy)-(3-trifluoromethyl-phenyl)-acetic acid]
- minimal effective dose [2]: ≤ 125 mg/kg
- Insulin Level compared with vehicle [2]: Lower

SMILES: CC(=O)NCCOC(=O)C(Oc1cccc(C(F)(F)F)c1)c1ccc(Br)cc1 (single isomer, unassigned; (-)) [(−)Analog 29]
- plasma glucose concentrations vs vehicle [1, 6]: significantly reduced plasma glucose concentrations at 6 hours
- Glucose 6 hours [1, 6]: 333.5 ± 16.1 mg/dL
- Predose Glucose [1, 7]: 372.2 ± 17.1 mg/dL

SMILES: O=C(NCCOC(=O)C(Oc1cccc(C(F)(F)F)c1)c1ccc(Cl)cc1)c1ccccc1 (single isomer, unassigned; (-)) [(−)Analog 36]
- plasma glucose concentrations vs vehicle [1, 6]: significantly reduced plasma glucose concentrations at 6 hours
- Glucose 6 hours [1, 6]: 281.1 ± 18.2 mg/dL
- Predose Glucose [1, 7]: 373.2 ± 15.5 mg/dL

SMILES: NC(=O)COC(=O)C(Oc1cccc(C(F)(F)F)c1)c1ccc(Cl)cc1 (single isomer, unassigned; (-)) [(−)Analog 37]
- plasma glucose concentrations vs vehicle [1, 6]: significantly reduced plasma glucose concentrations at 6 hours
- Glucose 6 hours [1, 6]: 271.7 ± 22.5 mg/dL
- Predose Glucose [1, 7]: 373.4 ± 16.1 mg/dL

SMILES: CN(C)C(=O)COC(=O)C(Oc1cccc(C(F)(F)F)c1)c1ccc(Cl)cc1 (single isomer, unassigned; (-)) [(−)Analog 38]
- plasma glucose concentrations vs vehicle [1, 6]: significantly reduced plasma glucose concentrations at 6 hours
- Glucose 6 hours [1, 6]: 251.2 ± 23.6 mg/dL
- Predose Glucose [1, 7]: 373.4 ± 16.1 mg/dL

SMILES: O=C(O)C(Oc1ccc(C(F)(F)F)cc1)c1cccc(C(F)(F)F)c1 (stereo not drawn) [(+)−39, (4-trifluoromethyl-phenoxy)-(3-trifluoromethyl-phenyl)-acetic acid]
- minimal effective dose [2]: ≤ 125 mg/kg

SMILES: O=C(O)C(Oc1ccc(C(F)(F)F)cc1)c1cccc(C(F)(F)F)c1 (stereo not drawn) [(−)−39, (4-trifluoromethyl-phenoxy)-(3-trifluoromethyl-phenyl)-acetic acid]
- Potency [2]: ++ (effective for glucose lowering at the dose of ≦125 mg/kg)
- Insulin Level compared with vehicle [2]: Lower

SMILES: O=C(O)C(Oc1cc(C(F)(F)F)cc(C(F)(F)F)c1)c1ccc(C(F)(F)F)cc1 (stereo not shown) [Compound 81]
- Insulin Level compared with vehicle [2]: Lower

SMILES: O=C(O)C(Oc1ccc(C(F)(F)F)cc1)c1ccc(C(F)(F)F)cc1 (stereo not shown) [Compound 83]
- Potency [2]: ++ (effective for glucose lowering at the dose of ≦125 mg/kg)
- Insulin Level compared with vehicle [2]: Lower

SMILES: O=C(O)C(Oc1ccc(C(F)(F)F)cc1Cl)c1cccc(C(F)(F)F)c1 (stereo not shown) [Compound 85]
- Potency [2]: ++ (effective for glucose lowering at the dose of ≦125 mg/kg)
- Insulin Level compared with vehicle [2]: Lower

SMILES: O=C(O)C(Oc1cccc(C(F)(F)F)c1)c1ccc(C(F)(F)F)cc1 (stereo not shown) [Compound 86]
- Insulin Level compared with vehicle [2]: Lower

SMILES: O=C(O)C(Oc1ccc(C(F)(F)F)cc1Cl)c1ccc(C(F)(F)F)cc1 (stereo not shown) [Compound 89]
- Potency [2]: ++ (effective for glucose lowering at the dose of ≦125 mg/kg)
- Insulin Level compared with vehicle [2]: Lower

SMILES: O=C(O)C(Oc1ccc(C(F)(F)F)cn1)c1cccc(C(F)(F)F)c1 (stereo not shown) [Compound 100, (3-Trifluoromethyl-phenyl)-(5-trifluoromethyl-pyridin-2-yloxy)-acetic acid]
- Insulin Level compared with vehicle [2]: Lower

SMILES: CC(Oc1ccc(C(F)(F)F)cc1)(C(=O)O)c1cccc(C(F)(F)F)c1 (stereo not shown) [Compound 120, 2-(4-trifluoromethyl-phenoxy)-2-(3-trifluoromethyl-phenyl)-propionic acid]
- Insulin Level compared with vehicle [2]: Lower

SMILES: CC(Oc1ccc(C(F)(F)F)cc1)(C(=O)O)c1ccc(C(F)(F)F)cc1 (stereo not shown) [Compound 121, 2-(4-Trifluoromethyl-phenoxy)-2-(4-trifluoromethyl-phenyl)-propionic acid]
- Insulin Level compared with vehicle [2]: Lower

SMILES: OCC(Oc1ccc(C(F)(F)F)cc1)c1ccc(C(F)(F)F)cc1 (stereo not shown) [Compound 128]
- Potency [2]: ++ (effective for glucose lowering at the dose of ≦125 mg/kg)
- Insulin Level compared with vehicle [2]: Lower

SMILES: CC(=O)NCCOC(=O)C(Oc1ccc(C(F)(F)F)cc1)c1cccc(C(F)(F)F)c1 (stereo not shown) [Compound 136, (4-trifluoromethyl-phenoxy)-(3-trifluoromethyl-phenyl)-acetic acid 2-acetylamino-ethyl ester]
- Insulin Level compared with vehicle [2]: Lower

SMILES: CC(=O)NCCOC(=O)C(Oc1cccc(C(F)(F)F)c1)c1ccc(C(F)(F)F)cc1 (stereo not shown) [Compound 142]
- Insulin Level compared with vehicle [2]: Lower
